Experiments:
[1] = target: T1, UP1 fragment of hnRNP A1 / cyclin D1 or c-MYC IRES RNAs (Homo sapiens, UniProt P09651); assay: Filter binding assay of GST-tagged hnRNP A1 mutants with IRES RNAs; conditions: for association of UP1 fragment (a.a. 1-196) with cyclin D1 or c-MYC IRESs: GST-tagged protein
T1 construct: The UP1 fragment (a.a. 1-196) containing RRM1 and RRM2; made in house; host or cells: HEK293 cells
Procedure: Filter binding assays were performed as previously described (18,23). GSTtagged hnRNP A1 or hnRNP A1 deletion mutants were added to in vitro transcribed 32Plabeled RNAs corresponding to either the cyclin D1 or c-MYC IRESs in separate reactions in a volume of 10 μl in buffer containing 5 mM HEPES (pH 7.6), 30 mM KCl, 2 mM MgCl2, 200 mM DTT, 4% glycerol and 10 ng yeast tRNA for 10 min at room temperature. 8 μl of each binding reaction was applied to nitrocellulose membranes on a slot blot apparatus (Minifold II, Schleicher & Schuell). Membranes were washed and dried, and signals quantified using a phosphorimager.
To begin to investigate the mechanism of action of C11 and IRES-J007, it was initially determined whether the UP1 fragment of hnRNP A1 was sufficient to recapitulate C11 or IRESJ007-mediated inhibition of IRES binding to this ITAF. The relative association between the mutant proteins and either the cyclin D1 or c-MYC IRESs was determined by filter binding assays in the absence or presence of the inhibitors (FIG. 4B). […] Additionally, a mutant encompassing residues 103-372, containing RRM2 bound both IRES sequences and binding was reduced in the presence of either of the inhibitors. […] The presence of RRM2 is necessary and appears to cooperate with RRM1 to mediate IRES binding that is sensitive to C11 or IRES-J007. Finally, UP1 is capable of IRES binding that is blocked by either C11 or the analog IRES-J007.
Mutant 1-196 constitutes the Up1 fragment of full-length human hnRNP A1. In the Δ130-158 mutant, the sequences encompassing RRM2 have been removed. (B) Binding of either cyclin D1 (top panel) or c-MYC (bottom panel) IRES RNAs to GST-tagged hnRNP A1 mutants in the absence or presence of C11 or IRES-J007 as assayed by filter binding. The mean and +SD are shown for three independent experiments.

human cyclin D1 IRES = assay: Dicistronic IRES mRNA reporter assay (firefly luciferase), cyclin D1 IRES; type: cell-based; conditions: for Cyclin D1 (decrease): fold decrease in PP242-induced cyclin D1 IRES activity: LN229, relative to values obtained with parent compound C11
Procedure: (§1) Western blot and quantitative RT-PCR analyses were performed as previously described (19). For Western blotting, cells or tissues were lysed in RIPA (lysis) buffer containing protease inhibitor cocktail and phosSTOP phosphatase inhibitor cocktail (Roche) and extracts resolved by SDSPAGE. Proteins were transferred to PVDF membranes and incubated with the indicated antibodies. For IRES reporter assays, the indicated mRNA reporters were cotransfected into cells with pSVβ-galactosidase to normalize for transfection efficiency as described previously (16). Cells were harvested 18 h following transfection and Renilla, firefly and β-galactosidase activities determined using the Dual-Glo Luciferase and β-galactosidase assay systems (Promega).
(§2) (B) Schematic diagrams of the dicistronic constructs used in this study. Constructs used are pRF, pRCD1F, which contains the human cyclin D1 IRES, pRmycF, containing the human c-myc IRES, pRp27F, containing the human p27Kip1 IRES and pRECMVF, containing the IRES from encephalomyocarditis virus. (C) Relative Renilla and firefly luciferase activities obtained from LN229 GBM cells transfected with the indicated constructs in the absence or presence of the inhibitor C11. The mean and +SD are shown for three independent experiments. […] (D) RNA-pull down assays utilizing biotinylated cyclin D1 or c-MYC IRES RNAs. Cytoplasmic extracts of LN229 cells treated with C11 (50 nM) as indicated were incubated with biotinylated cyclin D1 or c-MYC IRES RNAs and precipitated with streptavidin-Sepharose beads. Input and bound fractions were analyzed by immunoblotting using hnRNP A1 antibodies. […] RT-PCR measurements were performed in quadruplicate and the mean and +S.D. are shown. […] (F) Top panel, LN229 cells were treated with C11 as indicated and RT-PCR splicing analysis for Max exon 5 performed as described in the Experimental Methods section. Middle panel, LN229 cells treated with C11 (50 nM) as indicated, were lysed and immunoprecipitated using either eIF-4E or control IgG antibodies. Bound CCND1 or c-MYC RNAs were detected via RT-PCR. The mean and +S.D. are shown for three independent experiments. Bottom panel, cyclin D1 and c-MYC protein levels from the indicated GBM cell lines in the absence or presence of C11 at 24 h following treatment. C11 specifically blocks c-Myc IRES-mediated translation initiation by disrupting the ITAF hnRNP A1-IRES interaction.
(§3) Several dicistronic IRES mRNA reporter constructs were utilized, shown in FIG. 1B, in which the indicated IRES sequences were inserted within the intercistronic region. LN229 cells transiently transfected with these constructs were assayed for Renilla and firefly luciferase activities, which are readouts of cap-dependent and IRES-mediated translation initiation, respectively (16). […]

human c-myc IRES [2] = assay: Dicistronic IRES mRNA reporter assay (firefly luciferase), c-myc IRES; type: cell-based; conditions: for c-myc (decrease): fold decrease in PP242-induced c-MYC IRES activity: LN229, relative to values obtained with parent compound C11
Procedure: as §1, §2, §3

human c-myc IRES [3] = assay: as above; type: cell-based; conditions: 293T cells, 50 nM, 24 h
[4] = LN229 cells, cotreatment with rapamycin or PP242

T1 sequence (P09651 1-196): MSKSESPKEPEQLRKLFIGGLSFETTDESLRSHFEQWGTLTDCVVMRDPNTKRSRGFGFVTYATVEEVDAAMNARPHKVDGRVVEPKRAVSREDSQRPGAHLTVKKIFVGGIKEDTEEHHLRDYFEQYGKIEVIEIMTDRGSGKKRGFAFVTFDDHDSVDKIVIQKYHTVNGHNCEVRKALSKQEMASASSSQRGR

Structure (SMILES)	association of UP1 fragment (a.a. 1-196) with cyclin D1 or c-MYC IRESs [1]	Cyclin D1 (decrease): fold decrease in PP242-induced cyclin D1 IRES activity (human cyclin D1 IRES) [fold]	mTOR inhibitor-induced cyclin D1 IRES activity (human cyclin D1 IRES; [4])	cyclin D1 IRES activity (human cyclin D1 IRES; LN229 cells, inhibitor alone)	c-myc (decrease): fold decrease in PP242-induced c-MYC IRES activity (human c-myc IRES [2]) [fold]	mTOR inhibitor-induced c-MYC IRES activity (human c-myc IRES [2]; [4])	c-MYC IRES activity (human c-myc IRES [2]; LN229 cells, inhibitor alone)	basal c-MYC IRES activity (human c-myc IRES [3])	ability to block UP1/IRES RNA interactions compared to C11 [1]
COc1ccc(CN2C(=O)C(Cl)=C(Cl)C2=O)c(OC)c1 [Compound C11, reference compound]	blocked association	1.0	significantly inhibited	significantly inhibited	1.0	significantly inhibited	significantly inhibited	reduced IRES activity	
COc1ccc(CN2C(=O)c3ccccc3C2=O)c(OC)c1 [IRES-J007, 2-((2,4-Dimethoxyphenyl)methyl)isoindoline-1,3-dione]	blocked association	4.97 ± 0.13			6.51 ± 0.07			reduced IRES activity	modest, yet significant increase
